Patent US9593305B2, “Differentiation of pluripotent stem cells” (Janssen Biotech, Inc., priority 2008, dated 2017)

Test system: H1 human embryonic stem cells
Test: Analogue screening in combination with only GDF-8, SOX17 (Example 21, Tables 18 and 19)
Format: cell-based
Set-up: Sox17 Expression: % of positive control / Cell Number: % of positive control: tested at 2.5 µM
Conditions: compound in combination with GDF8; for Cell Number: Average Total Cell Number / Sox17 Expression: Average Total Intensity: four assay plates; for Cell Number: % of positive control / Sox17 Expression: % of positive control: relative to Activin A/Wnt3a of the same plate
Method: Briefly, clusters of H1 human embryonic stem cells were grown on reduced growth factor Matrigel™ (Invitrogen; Cat #356231)-coated tissue culture plastic. Cells were passaged using collagenase (Invitrogen; Cat #17104-019) treatment and gentle scraping, washed to remove residual enzyme, and plated with even dispersal at a ratio of 1:1 (surface area) on reduced growth factor […]™ (BD Biosciences; Cat #356231)-coated 96-well black plates (Packard ViewPlates; PerkinElmer; Cat #6005182) using volumes of 100 μl/well. Cells were allowed to attach and then recover log phase growth over a 1 to 3 day time period, feeding daily with MEF conditioned medium supplemented with 8 ng/ml bFGF (R&D Systems; Cat #233-FB). Plates were maintained at 37° C., 5% CO2 in a humidified box throughout the duration of assay.
Screening was conducted using a library of the analogue compounds. Compounds from this library were made available as 5 mM stocks in 96-well plate format, solubilized in 100% DMSO (Sigma; Cat #D2650) and stored at −80° C. The library compounds were further diluted to an intermediate concentration of 0.2 mM in 50 mM HEPES (Invitrogen; Cat #15630-080), 20% DMSO and stored at 4° C. Test conditions were performed in triplicate, feeding on alternating days over a four-day assay period. Assays were initiated by aspirating culture medium from each well followed by three washes in PBS (Invitrogen; Cat #14190) to remove residual growth factors. On the first day of assay, test volumes of 200 μl per well were added to each well using DMEM:F12 base medium (Invitrogen; Cat #11330-032) supplemented with 0.5% FCS (HyClone; Cat #SH30070.03) and 200 ng/ml GDF-8 (R&D Systems, Cat #788-G8) plus 2.5 μM compound. On the third day of assay, test volumes of 100 μl per well were added to each well using DMEM:F12 base medium supplemented with 2% FCS plus 200 ng/ml GDF-8 (R&D Systems, Cat #788-G8). Positive control samples contained the same base medium supplemented with FCS and 1000 ng/ml recombinant human activin A (PeproTech; Cat #120-14) throughout the four-day assay along with Wnt3a (20 ng/ml) on days 1 and 2. Negative control samples contained DMEM:F12 base medium supplemented with FCS, adding Wnt3a on days 1 and 2 but omitting treatment with activin A.
At the conclusion of four-days of culture, assay plates were washed twice with PBS (Invitrogen; Cat #14190), fixed with 4% paraformaldehyde (Alexis Biochemical; Cat #ALX-350-011) at room temperature for 20 minutes, then washed three times with PBS and permeabilized with 0.5% Triton X-100 (Sigma; Cat #T8760-2) for 20 minutes at room temperature. Cells were washed again three times with PBS and blocked with 4% chicken serum (Invitrogen; Cat #16110082) in PBS for 30 minutes at room temperature. Primary antibody (goat anti-human SOX17; R&D Systems; Cat #AF1924) was diluted 1:100 in 4% chicken serum and added to each well for one hour at room temperature. Alexa Fluor 488 conjugated secondary antibody (chicken anti-goat IgG; Molecular Probes; Cat #AZ1467) was diluted 1:200 in PBS and added to each sample well after washing three times with PBS. To counterstain nuclei, 4 μg/ml Hoechst 33342 (Invitrogen; Cat #H3570) was added for ten minutes at room temperature. Plates were washed once with PBS and left in 100 μl/well PBS for imaging.
Imaging was performed using an IN Cell Analyzer 1000 (GE Healthcare) utilizing the 51008bs dichroic for cells stained with Hoechst 33342 and Alexa Fluor 488. Exposure times were optimized from positive control wells and from untreated negative control wells stained with secondary antibody alone. Images from 15 fields per well were acquired to compensate for any cell loss during the bioassay and subsequent staining procedures. Measurements for total cell number and total SOX17 intensity were obtained from each well using IN Cell Developer Toolbox 1.7 (GE Healthcare) software. […]

SMILES | Cell Number: Average Total Cell Number | Sox17 Expression: Average Total Intensity | Cell Number: % of positive control [%] | Sox17 Expression: % of positive control [%]
CC(C)(C)OC(=O)NCCc1ccc(Nc2nnc(-c3cccc(CCCO)c3)[nH]2)cc1 [Compound 51, 1,1-Dimethylethyl {2-[4-({5-[3-(3-hydroxypropyl)phenyl]-4H-1,2,4-triazol-3-yl}amino)phenyl]ethyl}carbamate] | 4289 | 1.70E+07 | 28.6 | 4.9
COc1ccc(CCCO)cc1-c1cnc(Nc2cccc(CNC(=O)OC(C)(C)C)c2)o1 [Compound 52, 1,1-Dimethylethyl {[3-({5-[5-(3-hydroxypropyl)-2-(methyloxy)phenyl]-1,3-oxazol-2-yl}amino)phenyl]methyl}carbamate] | 4932 | 1.99E+07 | 32.9 | 5.8
O=C(O)CCc1cccc(Nc2ncnc(-c3cccnc3)n2)c1 [Compound 1, 3-{3-[(4-Pyridin-3-yl-1,3,5-triazin-2-yl)amino]phenyl}propanoic acid] | 3213 | 6.48E+06 | 21.0 | 1.9
CC(C)(C)OC(=O)NCCCCc1cc(-c2ncnc(Nc3cccc(CO)c3)n2)ccn1 [Compound 4, 1,1-Dimethylethyl {4-[4-(4-{[3-(hydroxymethyl)phenyl]amino}-1,3,5-triazin-2-yl)pyridin-2-yl]butyl}carbamate] | 3163 | 1.58E+07 | 20.7 | 4.7
COc1ccc(-c2ccnc(Nc3cc(Br)cc(CO)c3)n2)cc1CN(C)CCCNC(=O)OC(C)(C)C [Compound 5, 1,1-Dimethylethyl {3-[{[5-(2-{[3-bromo-5-(hydroxymethyl)phenyl]amino}pyrimidin-4-yl)-2-(methyloxy)phenyl]methyl}(methyl)amino]propyl}carbamate] | 3137 | 1.30E+07 | 20.5 | 3.9
CN1CCN(S(=O)(=O)c2ccc(Nc3cncc(-c4ccc(CN5CCC(O)CC5)s4)n3)cc2)CC1 [Compound 53, 1-({5-[6-({4-[(4-Methylpiperazin-1-yl)sulfonyl]phenyl}amino)pyrazin-2-yl]thiophen-2-yl}methyl)piperidin-4-ol] | 2783 | 6.36E+06 | 18.2 | 1.9
OCCc1cccc(Nc2ncnc(-c3cccnc3)n2)c1 [Compound 2, 2-{3-[(4-Pyridin-3-yl-1,3,5-triazin-2-yl)amino]phenyl}ethanol] | 4538 | 2.95E+07 | 30.2 | 8.6
